Experiments:
rape = assay: Test B pre/postemergence rape; format: in vivo, Brassica napus
In short: (§1)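 Response is a visual 0-to-10 score relative to untreated plants, where 0 means no effect and 10 means complete control, taken twelve to sixteen days after application. Treatments went onto soil at planting and onto foliage of 1- to 4-leaf plants, using a surfactant-containing non-phytotoxic solvent.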

bedstraw = assay: Test B pre/postemergence bedstraw; format: in vivo, Galium aparine; settings: Postemergence
In short: as §1

blackgrass = assay: Test B pre/postemergence blackgrass; format: in vivo, Alopecurus myosuroides
In short: as §1

duck salad = assay: Test B flood test duck salad; format: in vivo, Heteranthera limosa
In short: (§2)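 Each value is a visual injury score relative to controls, with 10 meaning complete control and 0 no effect. Evaluation took place twelve to sixteen days after the 2-leaf-stage plants were treated and kept in the greenhouse.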

wheat = assay: Test B pre/postemergence wheat; format: in vivo, Triticum aestivum
In short: as §1

giant foxtail = assay: Test B pre/postemergence giant foxtail; format: in vivo, Setaria faberii
In short: as §1

crabgrass = assay: Test B pre/postemergence crabgrass; format: in vivo, Digitaria sanguinalis
In short: as §1

surinam grass = assay: Test B pre/postemergence surinam grass; format: in vivo, Brachiaria decumbens
In short: as §1

sugar beet = assay: Test B pre/postemergence sugar beet; format: in vivo, Beta vulgaris
In short: as §1

smallflower flatsedge = assay: Test B flood test smallflower flatsedge; format: in vivo, Cyperus difformis
In short: as §2

rice = assay: Test B flood test rice; format: in vivo, Oryza sativa
In short: as §2

cocklebur = assay: Test B pre/postemergence cocklebur; format: in vivo, Xanthium strumarium
In short: as §1

purple nutsedge = assay: Test B pre/postemergence purple nutsedge; format: in vivo, Cyperus rotundus
In short: as §1

soybean = assay: Test B pre/postemergence soybean; format: in vivo, Glycine max
In short: as §1

velvetleaf = assay: Test B pre/postemergence velvetleaf; format: in vivo, Abutilon theophrasti
In short: as §1

bamyardgrass = assay: Test B flood test barnyardgrass; format: in vivo, Echinochloa crus-galli
In short: as §2

corn = assay: Test B pre/postemergence corn; format: in vivo, Zea mays
In short: as §1

[1] = Postemergence, Rate 250 g/ha, scale 0 to 10
[2] = Postemergence, Rate 500 g/ha, scale of 0 to 10 where 0 is no effect and 10 is complete control
[3] = Preemergence, Rate 62 g/ha, scale 0 to 10 (0 no effect, 10 complete control)
[4] = Preemergence, Rate 125 g/ha, scale of 0 to 10 where 0 is no effect and 10 is complete control
[5] = Preemergence, Rate 250 g/ha, scale 0 to 10, 0 is no effect, 10 is complete control
[6] = Preemergence, Rate 500 g/ha, scale 0 to 10, 0 is no effect, 10 is complete control
[7] = Rate 125 g/ha, Postemergence, scale 0 to 10, 0 is no effect, 10 is complete control
[8] = Preemergence, Rate 250 g/ha, scale of 0 to 10 where 0 is no effect and 10 is complete control
[9] = Rate 62 g/ha, Postemergence, scale of 0 to 10 where 0 is no effect and 10 is complete control
[10] = Postemergence block (flood test species), Rate 250 g/ha, scale 0 to 10
[11] = Postemergence section (flood test species), Rate 500 g/ha, scale of 0 to 10 where 0 is no effect and 10 is complete control
[12] = Rate 62 g/ha, Postemergence (flood test species), scale of 0 to 10 where 0 is no effect and 10 is complete control
[13] = Rate 125 g/ha, Postemergence section (flood test species), scale 0 to 10, 0 is no effect, 10 is complete control

CC(C)N(C(=O)n1oc(=O)n(C[Si](C)(C)c2ccccc2)c1=O)c1ccc(Cl)cc1 [Compound 424]
Rape plant response rating (rape; [1]): 0
Rape plant response rating (rape; [2]): 0
Plant response rating, Rape (rape; [3]): 0
Plant response rating, Rape (rape; [4]): 0
Rape plant response rating (rape; [5]): 0
Rape plant response rating (rape; [6]): 0
Rape plant response rating (rape; [7]): 0
Bedstraw plant response rating (bedstraw; Rate 250 g/ha, scale 0 to 10): 0
Bedstraw plant response rating (bedstraw; Rate 500 g/ha, scale of 0 to 10 where 0 is no effect and 10 is complete control): 0
Bedstraw plant response rating (bedstraw; Rate 62 g/ha, scale of 0 to 10 where 0 is no effect and 10 is complete control): 0
Bedstraw plant response rating (bedstraw; Rate 125 g/ha, scale 0 to 10, 0 is no effect, 10 is complete control): 0
Blackgrass plant response rating (blackgrass; [1]): 0
Blackgrass plant response rating (blackgrass; [2]): 0
Plant response rating, Blackgrass (blackgrass; [3]): 0
Plant response rating, Blackgrass (blackgrass; [4]): 0
Blackgrass plant response rating (blackgrass; [8]): 0
Blackgrass plant response rating (blackgrass; [6]): 0
Blackgrass plant response rating (blackgrass; [9]): 0
Blackgrass plant response rating (blackgrass; [7]): 0
Ducksalad plant response rating (duck salad; [10]): 0
Ducksalad plant response rating (duck salad; [11]): 0
Ducksalad plant response rating (duck salad; [12]): 0
Ducksalad plant response rating (duck salad; [13]): 0
Wheat plant response rating (wheat; [1]): 0
Wheat plant response rating (wheat; [2]): 0
Plant response rating, Wheat (wheat; [3]): 0
Plant response rating, Wheat (wheat; [4]): 0
Wheat plant response rating (wheat; [5]): 0
Wheat plant response rating (wheat; [6]): 0
Wheat plant response rating (wheat; [7]): 0
Giant foxtail plant response rating (giant foxtail; [1]): 0
Giant foxtail plant response rating (giant foxtail; [2]): 0
Plant response rating, Giant foxtail (giant foxtail; [3]): 0
Plant response rating, Giant foxtail (giant foxtail; [4]): 0
Giant foxtail plant response rating (giant foxtail; [5]): 0
Giant foxtail plant response rating (giant foxtail; [6]): 0
Giant foxtail plant response rating (giant foxtail; [9]): 0
Giant foxtail plant response rating (giant foxtail; [7]): 0
Crabgrass plant response rating (crabgrass; [1]): 0
Crabgrass plant response rating (crabgrass; [2]): 0
Plant response rating, Crabgrass (crabgrass; [3]): 0
Plant response rating, Crabgrass (crabgrass; [4]): 0
Crabgrass plant response rating (crabgrass; [5]): 0
Crabgrass plant response rating (crabgrass; [6]): 0
Crabgrass plant response rating (crabgrass; [9]): 0
Crabgrass plant response rating (crabgrass; [7]): 0
B. signalgrass plant response rating (surinam grass; Postemergence, Rate 250 g/ha, scale 0 to 10, 0 no effect, 10 complete control): 0
B. signalgrass plant response rating (surinam grass; [2]): 0
Plant response rating, B. signalgrass (surinam grass; [3]): 0
Plant response rating, B. signalgrass (surinam grass; [4]): 0
B. signalgrass plant response rating (surinam grass; [8]): 0
B. signalgrass plant response rating (surinam grass; Preemergence, Rate 500 g/ha, scale of 0 to 10 where 0 is no effect and 10 is complete control): 0
B. signalgrass plant response rating (surinam grass; [9]): 0
B. signalgrass plant response rating (surinam grass; [7]): 0
Sugarbeets plant response rating (sugar beet; [1]): 0
Sugarbeets plant response rating (sugar beet; [2]): 0
Plant response rating, Sugarbeets (sugar beet; [3]): 0
Plant response rating, Sugarbeets (sugar beet; [4]): 0
Sugarbeets plant response rating (sugar beet; [5]): 0
Sugarbeets plant response rating (sugar beet; [6]): 0
Sugarbeets plant response rating (sugar beet; [7]): 0
S. Flatsedge plant response rating (smallflower flatsedge; [10]): 0
S. Flatsedge plant response rating (smallflower flatsedge; [11]): 0
S. Flatsedge plant response rating (smallflower flatsedge; [13]): 0
Rice plant response rating (rice; [10]): 0
Rice plant response rating (rice; [11]): 0
Rice plant response rating (rice; [13]): 0
Cocklebur plant response rating (cocklebur; [1]): 0
Cocklebur plant response rating (cocklebur; [2]): 0
Plant response rating, Cocklebur (cocklebur; [3]): 0
Plant response rating, Cocklebur (cocklebur; [4]): 0
Cocklebur plant response rating (cocklebur; [5]): 0
Cocklebur plant response rating (cocklebur; [6]): 0
Cocklebur plant response rating (cocklebur; [9]): 0
Cocklebur plant response rating (cocklebur; [7]): 0
Nutsedge plant response rating (purple nutsedge; [1]): 0
Nutsedge plant response rating (purple nutsedge; [2]): 0
Plant response rating, Nutsedge (purple nutsedge; [3]): 0
Plant response rating, Nutsedge (purple nutsedge; [4]): 0
Nutsedge plant response rating (purple nutsedge; [5]): 0
Nutsedge plant response rating (purple nutsedge; [6]): 0
Nutsedge plant response rating (purple nutsedge; [7]): 0
Soybean plant response rating (soybean; [1]): 1
Soybean plant response rating (soybean; [2]): 2
Plant response rating, Soybean (soybean; [3]): 0
Plant response rating, Soybean (soybean; [4]): 0
Soybean plant response rating (soybean; [5]): 0
Soybean plant response rating (soybean; [6]): 0
Soybean plant response rating (soybean; [7]): 0
Velvetleaf plant response rating (velvetleaf; [1]): 0
Velvetleaf plant response rating (velvetleaf; [2]): 0
Plant response rating, Velvetleaf (velvetleaf; [3]): 0
Plant response rating, Velvetleaf (velvetleaf; [4]): 0
Velvetleaf plant response rating (velvetleaf; [5]): 0
Velvetleaf plant response rating (velvetleaf; [6]): 0
Velvetleaf plant response rating (velvetleaf; [7]): 0
Barnyardgrass plant response rating (bamyardgrass; [10]): 0
Barnyardgrass plant response rating (bamyardgrass; [11]): 0
Barnyardgrass plant response rating (bamyardgrass; [12]): 0
Barnyardgrass plant response rating (bamyardgrass; [13]): 0
Corn plant response rating (corn; [1]): 0
Corn plant response rating (corn; [2]): 0
Plant response rating, Corn (corn; [3]): 0
Plant response rating, Corn (corn; [4]): 0
Corn plant response rating (corn; [5]): 0
Corn plant response rating (corn; [6]): 0
Corn plant response rating (corn; [9]): 0
Corn plant response rating (corn; [7]): 0
